How the values were obtained:
[1] = Chemical stability assay in solutions with various pH values (UPLC); type: physicochemical
Source text: 1. Detection Means and Conditions Used in the Chemical Stability Assay
• Detection method: Ultra-high performance liquid chromatography (UPLC) Chromatographic Conditions: • System: Ultra-high performance liquid chromatography system including pump, automatic sample injector, detector, and column oven • Column Waters Acquity UPLC BEH C18 (2.1*50 mm, 1.7 μm) • Detector: PDA detector • Detection wavelength: 225 nm • Mobile phase: A: 0.05% trifluoroacetic acid in water • B: acetonitrile • Gradient:
• Flow rate: 0.4 ml/min • Column temperature: 40° C. • Injecion volume: 2 μl 2. Study on the Chemical Stability of the Compounds of the Invention (1). Formulation of Solutions of Test Compound P9
Compound P9 was formulated as solutions in different buffer systems at a concentration of 0.2 mg/ml using PEG400 as cosolvent. These solutions were used for chemical stability study. The solutions with various pH values were formulated as follows: […]
Conditions for the chemical stability assay: the solutions of Compound P9 with various pH values were stored at 37° C. for 24 h. The content of Compound P9 was determined by HPLC at 0, 4, 8, 12, 14 and 24 h. […]

[2] = Permeability study, Caco-2 cell in vitro drug absorption model; type: in vitro ADME; settings: human
Procedure: The permeability of Compound P9 of the invention and Compound A107 of WO2017/114510A1 was determined using Caco-2 cell in vitro drug absorption model in this Example
• Cell: human intestinal cancer Caco2 (HTB-37, ATCC) • Petri dish: 10 cm petri dish (430167, Corning) • Millicell-24 microplage (PSHT010R5, Millipore) • Buffer: PBS (14190, Invitrogen) • HEPES (H0887, Sigma) • HBSS (H8264, Sigma) • Substances related to cell culture: • high glucose DMEM medium (L0103-500, Biowest) • fetal bovine serum (S1810-500, Biowest) • trypsin (255200-056, Invitrogen) • nonessential amino acid (M7145, Sigma) • penicillin and streptomycin (B-13234, GIBCO) • sodium pyruvate (11360-070, Invitrogen) • L-glutamine (25030-081, Invitrogen) • Relevant reagents: fluorescein (L0144, Sigma) • propranolol (P831800, Sigma) • colchicine (C9754, Sigma) • atenolol (A7655, Sigma) • Instruments: liquid chromatography (Waters Acquity UPLC I-class, Waters) • mass spectrometry (Waters xevo TQ-S MS/MS, Waters) • ohmmeter (Millicell-ERS, Thermo) • microplate reader (Infinite Pro, Tecan) (2). Assay Protocol:
• 1) The Caco-2 cells were revived, and incubated in a 10 cm petri dish in a 5-6% CO2 and 95% RH incubator at 37° C. […] The cells were re-suspended in 6 ml complete medium, and counted three times. • 3) The cells were harvested by centrifugation at 1000 rpm for 5 min, and diluted in suspension. […]

With Cn1nccc1Nc1cc(-c2cc(F)c3c(c2)CCN3C(=O)Cc2cccnc2Cl)ccn1 [Example P9, 2-(2-chloropyridin-3-yl)-1-(7-fluoro-5-(2-((1-methyl-1H-pyrazol-5-yl)amino)pyridin-4-yl)indolin-1-yl)ethan-1-one] the “Percentage (%) of the peak area of the total impurity” value ([1]; solution pH 2.0, 37° C., 0 h) was 0.84%, the “Percentage (%) relative to the peak area of the compound at the original point” value (shortened to “Percentage (%) relative to the peak area”) ([1]; solution pH 2.0, 37° C., 0 h) was 100.0% and the “Percentage (%) of the peak area of the total impurity” value ([1]; solution pH 2.0, 37° C., 4 h) was 0.85%. The “Percentage (%) relative to the peak area” value ([1]; solution pH 2.0, 37° C., 4 h) was 100.1%, the “Percentage (%) of the peak area of the total impurity” value ([1]; solution pH 2.0, 37° C., 8 h) was 0.85% and the “Percentage (%) relative to the peak area” value ([1]; solution pH 2.0, 37° C., 8 h) was 101.0%. For the same compound, the “Percentage (%) of the peak area of the total impurity” value ([1]; solution pH 2.0, 37° C., 12 h) was 0.85%, the “Percentage (%) relative to the peak area” value ([1]; solution pH 2.0, 37° C., 12 h) was 100.6% and the “Percentage (%) of the peak area of the total impurity” value ([1]; solution pH 2.0, 37° C., 14 h) was 0.84%. For the same compound, the “Percentage (%) relative to the peak area” value ([1]; solution pH 2.0, 37° C., 14 h) was 100.6%, the “Percentage (%) of the peak area of the total impurity” value ([1]; solution pH 2.0, 37° C., 24 h) was 0.85% and the “Percentage (%) relative to the peak area” value ([1]; solution pH 2.0, 37° C., 24 h) was 101.0%. For the same compound, the “Percentage (%) of the peak area of the total impurity” value ([1]; solution pH 6.8, 37° C., 0 h) was 0.75%, the “Percentage (%) relative to the peak area” value ([1]; solution pH 6.8, 37° C., 0 h) was 100.0% and the “Percentage (%) of the peak area of the total impurity” value ([1]; solution pH 6.8, 37° C., 4 h) was 0.69%. For the same compound, the “Percentage (%) relative to the peak area” value ([1]; solution pH 6.8, 37° C., 4 h) was 101.0%, the “Percentage (%) of the peak area of the total impurity” value ([1]; solution pH 6.8, 37° C., 8 h) was 0.71% and the “Percentage (%) relative to the peak area” value ([1]; solution pH 6.8, 37° C., 8 h) was 101.4%. For the same compound, the “Percentage (%) of the peak area of the total impurity” value ([1]; solution pH 6.8, 37° C., 12 h) was 0.71%, the “Percentage (%) relative to the peak area” value ([1]; solution pH 6.8, 37° C., 12 h) was 101.6% and the “Percentage (%) of the peak area of the total impurity” value ([1]; solution pH 6.8, 37° C., 14 h) was 0.68%. The “Percentage (%) relative to the peak area” value ([1]; solution pH 6.8, 37° C., 14 h) was 100.8%, the “Percentage (%) of the peak area of the total impurity” value ([1]; solution pH 6.8, 37° C., 24 h) was 0.68% and the “Percentage (%) relative to the peak area” value ([1]; solution pH 6.8, 37° C., 24 h) was 101.7%. The “Percentage (%) of the peak area of the total impurity” value ([1]; solution pH 7.4, 37° C., 0 h) was 0.72%, the “Percentage (%) relative to the peak area” value ([1]; solution pH 7.4, 37° C., 0 h) was 100.0% and the “Percentage (%) of the peak area of the total impurity” value ([1]; solution pH 7.4, 37° C., 4 h) was 0.67%. For the same compound, the “Percentage (%) relative to the peak area” value ([1]; solution pH 7.4, 37° C., 4 h) was 100.3%, the “Percentage (%) of the peak area of the total impurity” value ([1]; solution pH 7.4, 37° C., 8 h) was 0.65% and the “Percentage (%) relative to the peak area” value ([1]; solution pH 7.4, 37° C., 8 h) was 101.4%. For the same compound, the “Percentage (%) of the peak area of the total impurity” value ([1]; solution pH 7.4, 37° C., 12 h) was 0.67%, the “Percentage (%) relative to the peak area” value ([1]; solution pH 7.4, 37° C., 12 h) was 100.9% and the “Percentage (%) of the peak area of the total impurity” value ([1]; solution pH 7.4, 37° C., 14 h) was 0.71%. The “Percentage (%) relative to the peak area” value ([1]; solution pH 7.4, 37° C., 14 h) was 101.3%, the “Percentage (%) of the peak area of the total impurity” value ([1]; solution pH 7.4, 37° C., 24 h) was 0.74% and the “Percentage (%) relative to the peak area” value ([1]; solution pH 7.4, 37° C., 24 h) was 101.1%. For the same compound, the “chemical stability (conclusion in words)” value ([1]; storage in solutions of various pH at 37° C. for 24 h) was “good chemical stability”, the efflux ratio at 1.5 h, 20 μm [2] was 1.3 and the Papp A→B at 1.5 h, 20 μm ([2]; Papp, Apical to Basal, 20 μm, 1.5 h, read-out: apparent permeability coefficient (Caco-2) From A to B) was 23.7 ×10⁻⁶ cm/s.
